From patent publication US7868026B2, “Therapeutic compounds” (Pfizer Inc., priority 2005, dated 2011)
pIC50, pKi: −log10 of the molar value. Like-named read-outs stand apart in the source and are kept apart here.

Experiments:
Type in all cases: biochemical
[1] = molecular target: T1, CYP3A4 (Homo sapiens, UniProt P08684); experiment: Determination of IC50 against CYP3A4 by measurement of inhibition of midazolam metabolism (human liver microsomes, 1-hydroxymidazolam by LC-MS/MS); set-up: 0.1 mg/mL human liver microsomes; settings: 2 μM midazolam, 0.1 mg/mL human liver microsomes
Outline: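 Human liver microsomes (0.1 mg/mL) incubated 8 min with 2 μM midazolam and 1 mM NADPH in 100 mM potassium phosphate, pH 7.4. 1-Hydroxymidazolam quantified by LC-MS/MS (MRM) as peak area ratio to internal standard against a metabolite standard curve.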

[2] = molecular target: T1, CYP3A4; experiment: Determination of IC50 against CYP3A4 by measurement of inhibition of testosterone metabolism (human liver microsomes, 6-β-OH-testosterone by LC-MS/MS); set-up: 0.1 mg/mL human liver microsomes; settings: read-out: IC50 (Testo.)
Outline: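 6-β-OH-testosterone formation was read by LC-MS/MS (MRM, internal standard, standard curve) after eight minutes. Reaction contained testosterone 25 μM, NADPH 1 mM and microsomal protein 0.1 mg/mL in pH 7.4 potassium phosphate (100 mM).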

[3] = molecular target: T1, CYP3A4; experiment: Determination of compound Kiapp against recombinant CYP3A4 enzyme (BFC fluorescent substrate)
Outline: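 Kiapp derived from initial velocities over the first 5 min of BFC (5 uM) oxidation, using Morrison's tight-binding equation for non-partial and Szedlacsek's for partial inhibitors. Inhibitor first pre-incubated ≥30 min with CYP3A4 (5.5 or 8 nM, ±b5) in pH 7.0 phosphate/TCEP/2% DMF at room temperature; 200 uM NADPH initiated.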

[4] = Baculo. enzyme preparation, read-out: Kiapp (BFC, Baculo.)
[5] = Super. enzyme preparation, read-out: Kiapp (BFC, Super.)

T1 sequence (P08684 whole entry): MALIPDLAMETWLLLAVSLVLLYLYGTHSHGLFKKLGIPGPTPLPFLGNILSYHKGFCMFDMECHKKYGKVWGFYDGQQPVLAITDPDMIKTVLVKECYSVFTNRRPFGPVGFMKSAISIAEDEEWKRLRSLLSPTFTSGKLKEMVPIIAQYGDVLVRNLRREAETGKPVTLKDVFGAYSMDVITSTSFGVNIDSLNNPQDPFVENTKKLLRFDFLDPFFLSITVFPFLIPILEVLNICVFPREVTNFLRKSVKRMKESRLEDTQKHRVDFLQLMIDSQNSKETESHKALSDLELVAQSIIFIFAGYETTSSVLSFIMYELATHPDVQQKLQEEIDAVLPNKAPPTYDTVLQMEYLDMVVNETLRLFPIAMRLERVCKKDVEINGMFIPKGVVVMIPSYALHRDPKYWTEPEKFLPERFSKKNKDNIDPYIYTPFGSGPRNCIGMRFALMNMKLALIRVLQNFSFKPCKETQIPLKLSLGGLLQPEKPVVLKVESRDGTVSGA

Row | pIC50 [1] | pIC50 [2] | pKi [3, 4] | pKi [3, 5] | Compound
1 | 8.22 | 8.00 | 7.71 | 9.05 | Cc1cncc(NS(=O)(=O)c2ccccc2C(=O)NCc2ccc(F)c(Cl)c2)c1 [Example 158, N-(3-chloro-4-fluorobenzyl)-2-{[(5-methylpyridin-3-yl)amino]sulfonyl}benzamide]
2 | 8.15 | 7.80 | 7.77 | 8.47 | COc1cncc(NS(=O)(=O)c2ccccc2C(=O)N[C@H](CO)CC2CCCCC2)c1 [Example 190, N-[(1S)-2-cyclohexyl-1-(hydroxymethyl)ethyl]-2-{[(5-methoxypyridin-3-yl)amino]sulfonyl}benzamide]
3 | 8.40 | 7.96 | 7.03 | 8.15 | COc1cncc(NS(=O)(=O)c2ccccc2C(=O)NCc2c(F)ccc(C)c2F)c1 [Example 180, N-(2,6-difluoro-3-methylbenzyl)-2-{[(5-methoxypyridin-3-yl)amino]sulfonyl}benzamide]
4 | 8.40 | 7.74 | 7.16 | 7.70 | COc1cncc(NS(=O)(=O)c2ccccc2C(=O)NCCc2cc(F)ccc2F)c1 [Example 197, N-[2-(2,5-difluorophenyl)ethyl]-2-{[(5-methoxypyridin-3-yl)amino]sulfonyl}benzamide]
